Reference: PubChem BioAssay AID493161 (The Scripps Research Institute Molecular Screening Center, 2011)
Active and inactive are the calls of the source. The rule behind the calls is not given here.

Experiment: cell survival reduction, dose-dependent – absorbance, serum-free or FCS media, cytotoxicity control for LYPLA1/LYPLA2 dual inhibitor project, dose response (AID 493161)

| Structure (SMILES) | CC50 (serum-free media) | CC50 (with FCS) |
| --- | --- | --- |
| CC(C)(O)c1cnn(C(=O)N2CCC(C(C)(C)C)CC2)n1 | > 9 µM | > 27 µM (inactive) |
| CCC1CCCCN1C(=O)n1ncc(C(O)(c2ccccc2)c2ccccc2)n1 (stereo unspecified) | > 50 µM (inactive) | > 50 µM (inactive) |
| CC(C)(C)C1CCN(C(=O)n2ncc(C(O)(c3ccccc3)c3ccccc3)n2)CC1 | > 35 µM (inactive) | > 50 µM (inactive) |
